In publication PMC10221074, “Functional Profiling of the A-Family of Venom Peptides from the Wolf Spider Lycosa shansia” (Toxins, 2023):

What was measured:
[1] = test system: Pseudomonas aeruginosa DSM 1117; test: Antibacterial growth assay (OD600); details: OD600, medium = 100, MH II broth, 37 °C, peptide 200 µM mixed 50 µL + 50 µL with bacteria, Figure 7: 48 h; for Bacterial growth relative to medium, P. aeruginosa (1117), replicate 1: replicate column 1; for Bacterial growth relative to medium, P. aeruginosa (1117), replicate 2: replicate column 2; for Bacterial growth relative to medium, P. aeruginosa (1117), replicate 3: replicate column 3
Procedure: (§1) Cryo-conserved cultures of selected bacterial strains (Table 4) were transferred to Tryptic Soy Agar (TSA) plates (Carl Roth) with a sterile inoculation loop, sealed with Parafilm (BEMIS, Neenah, WI, USA), and incubated for 1–2 days at 37 °C depending on growth. Single colonies were picked and transferred into 2–3 mL of the Mueller–Hinton II (MH II) broth (BD, Heidelberg, Germany). The bacteria were cultivated overnight, subcultured on fresh medium and grown for 3–4 h before testing at 37 °C, with shaking at 180 rpm. We measured the optical density at 600 nm (OD600) of 1 mL of the bacterial suspensions in polystyrene cuvettes (SARSTED, Nümbrecht, Germany) using an Ultrospec 10 spectrophotometer (Biochrome, Cambridge, UK). We then diluted them with the MH II medium to the preferred OD600 (Table 2). The peptides were dissolved in DMSO to generate 10 mmol/L stocks and diluted with the MH II medium to 200 µM before the assay. We used 10 µg/mL (~40 µg/mL for S. epidermidis) gentamicin and colistin (Sigma-Aldrich, Taufkirchen, Germany), DMSO and the medium only as controls. The bacteria were transferred to 96-multiwell plates with a final volume of 100 µL per well (50 µL bacterial suspension, and 50 µL test peptide). The OD600 was measured at 0, 24 and 48 h using a BioTek Eon microplate reader followed by analysis with Gen5 v2.09.

[2] = test system: A/Hamburg/05/2009 (H1N1); type: cell-based, influenza virus
[3] = test system: Escherichia coli BL21(DE3); test: Antibacterial growth assay (OD600); details: OD600, medium = 100, MH II broth, 37 °C, peptide 200 µM mixed 50 µL + 50 µL with bacteria, Figure 7: 48 h; for Bacterial growth relative to medium, E. coli, replicate 1: replicate column 1; for Bacterial growth relative to medium, E. coli, replicate 2: replicate column 2; for Bacterial growth relative to medium, E. coli, replicate 3: replicate column 3
[4] = test system: A/Hessen/1/2003 (H3N2); type: cell-based, influenza virus; details: for Viability of infected cells relative to aprotinin, Replicate 4: replicate 4 (additional internal control)
[5] = test system: Staphylococcus epidermidis DSM 28319; test: Antibacterial growth assay (OD600); details: for Bacterial growth relative to medium, S. epidermidis, replicate 1 / Bacterial growth relative to medium, S. epidermidis, replicate 2 / Bacterial growth relative to medium, S. epidermidis, replicate 3: OD600, medium = 100, MH II broth, 37 °C, peptide 200 µM mixed 50 µL + 50 µL with bacteria, Figure 7: 48 h; for Bacterial growth relative to medium, S. epidermidis, replicate 1: replicate column 1; for Bacterial growth relative to medium, S. epidermidis, replicate 2: replicate column 2; for Bacterial growth relative to medium, S. epidermidis, replicate 3: replicate column 3; for Antibacterial activity (in words): S. epidermidis DSM 28319, growth after 48 h
[6] = test system: Pseudomonas aeruginosa DSM 50071; test: Antibacterial growth assay (OD600); details: OD600, medium = 100, MH II broth, 37 °C, peptide 200 µM mixed 50 µL + 50 µL with bacteria, Figure 7: 48 h; for Bacterial growth relative to medium, P. aeruginosa (50071), replicate 1: replicate column 1; for Bacterial growth relative to medium, P. aeruginosa (50071), replicate 2: replicate column 2; for Bacterial growth relative to medium, P. aeruginosa (50071), replicate 3: replicate column 3
[7] = test system: Micrococcus luteus DSM 20030; test: Antibacterial growth assay (OD600); details: for Antibacterial activity (in words): M. luteus DSM 20030, growth after 48 h; for Bacterial growth relative to medium, M. luteus, replicate 1 / Bacterial growth relative to medium, M. luteus, replicate 2 / Bacterial growth relative to medium, M. luteus, replicate 3: OD600, medium = 100, MH II broth, 37 °C, peptide 200 µM mixed 50 µL + 50 µL with bacteria, Figure 7: 48 h; for Bacterial growth relative to medium, M. luteus, replicate 1: replicate column 1; for Bacterial growth relative to medium, M. luteus, replicate 2: replicate column 2; for Bacterial growth relative to medium, M. luteus, replicate 3: replicate column 3
Procedure: as §1

[8] = test system: B/Malaysia/2506/2004 (B-Mal); type: cell-based, influenza virus
[9] = test system: Listeria monocytogenes DSM 20600; test: Antibacterial growth assay (OD600); details: OD600, medium = 100, MH II broth, 37 °C, peptide 200 µM mixed 50 µL + 50 µL with bacteria, Figure 7: 48 h; for Bacterial growth relative to medium, L. monocytogenes, replicate 1: replicate column 1; for Bacterial growth relative to medium, L. monocytogenes, replicate 2: replicate column 2; for Bacterial growth relative to medium, L. monocytogenes, replicate 3: replicate column 3
Procedure: as §1

[10] = test system: panel of seven bacterial strains; test: Antibacterial growth assay (OD600), statements on the whole panel; type: cell-based; details: growth after 48 h
[11] = test system: G. mellonella larvae; test: Insecticidal activity by injection into larvae; type: in vivo, Galleria mellonella; details: 50 ng peptide injected, 3 cohorts of 10 larvae, survival monitored for 5 days
Procedure: Insecticidal activity was determined using fourth and fifth instar G. mellonella larvae (L4/L5) obtained from Fauna Topics Zoobedarf Zucht und Handels GmbH (Marbach am Neckar, Germany). Because spider venom is injected via chelicerae, we opted for an injection-based assay to reflect the natural process of envenomation as described earlier. The peptides were dissolved in a 1:1 mixture of DMSO and water to a final concentration of 10 mmol/L. We injected 50 ng of each peptide into the pseudopodium using Omnican-F, 0.30 × 12 mm/G 30 × 1/2”, a 1 mL syringe adjusted to a WPI manual microsyringe injector setup. Injections with water, DMSO/water (1:1) and ethanol (90%) were used as controls, alongside untreated specimens. Insecticidal activity screenings were performed in cohorts of 10 larvae with 3 replicates (30 specimens per treatment or control). […] Survival was monitored every 24 h for 5 days. Mortality was calculated based on the ratio of dead to injected specimens.

[12] = test system: Staphylococcus aureus DSM 2569; test: Antibacterial growth assay (OD600); details: for Bacterial growth relative to medium, S. aureus, replicate 1 / Bacterial growth relative to medium, S. aureus, replicate 2 / Bacterial growth relative to medium, S. aureus, replicate 3: OD600, medium = 100, MH II broth, 37 °C, peptide 200 µM mixed 50 µL + 50 µL with bacteria, Figure 7: 48 h; for Bacterial growth relative to medium, S. aureus, replicate 1: replicate column 1; for Bacterial growth relative to medium, S. aureus, replicate 2: replicate column 2; for Bacterial growth relative to medium, S. aureus, replicate 3: replicate column 3; for Antibacterial activity (in words): S. aureus DSM 2569, growth after 48 h

Row | Sequence | Bacterial growth relative to medium, P. aeruginosa (1117), replicate 1 [1] | Bacterial growth relative to medium, P. aeruginosa (1117), replicate 2 [1] | Bacterial growth relative to medium, P. aeruginosa (1117), replicate 3 [1] | Viability of infected cells relative to aprotinin, Replicate 1 [2] | Viability of infected cells relative to aprotinin, Replicate 2 [2] | Viability of infected cells relative to aprotinin, Replicate 3 [2] | Bacterial growth relative to medium, E. coli, replicate 1 [3] | Bacterial growth relative to medium, E. coli, replicate 2 [3] | Bacterial growth relative to medium, E. coli, replicate 3 [3] | Viability of infected cells relative to aprotinin, Replicate 1 [4] | Viability of infected cells relative to aprotinin, Replicate 2 [4] | Viability of infected cells relative to aprotinin, Replicate 3 [4] | Bacterial growth relative to medium, S. epidermidis, replicate 1 [5] | Bacterial growth relative to medium, S. epidermidis, replicate 2 [5] | Bacterial growth relative to medium, S. epidermidis, replicate 3 [5] | Bacterial growth relative to medium, P. aeruginosa (50071), replicate 1 [6] | Bacterial growth relative to medium, P. aeruginosa (50071), replicate 2 [6] | Bacterial growth relative to medium, P. aeruginosa (50071), replicate 3 [6] | Bacterial growth relative to medium, M. luteus, replicate 1 [7] | Bacterial growth relative to medium, M. luteus, replicate 2 [7] | other results
1 | DVVKSKVGQT [LS-AMP-A20] | 78.7161 | 66.133 | 53.5452 | 0.03404 | 0.03606 | 0.06978 | 95.2629 | 75.2606 | 50.6769 | 0.06093 | 0.1556 | 0.1529 | 65.0524 | 56.0414 | 87.4721 | 100.814 | 110.766 | 86.151 | 84.9437 | 89.1892 | Viability of infected cells relative to aprotinin, Replicate 4 [4]: 0.1478; Antibacterial activity (in words) [7]: strongest effect; Bacterial growth relative to medium, M. luteus, replicate 3 [7]: 58.8713; Viability of infected cells relative to aprotinin, Replicate 1 [8]: 0.07308; Viability of infected cells relative to aprotinin, Replicate 2 [8]: 0.07936; Viability of infected cells relative to aprotinin, Replicate 3 [8]: 0.06088; Bacterial growth relative to medium, L. monocytogenes, replicate 1 [9]: 113.144; Bacterial growth relative to medium, L. monocytogenes, replicate 2 [9]: 85.2342; Bacterial growth relative to medium, L. monocytogenes, replicate 3 [9]: 40.8896; Antibacterial activity over the panel (in words) [10]: marginal effects against several bacteria; Insecticidal effect on larvae (in words) [11]: Individual dead insects; Bacterial growth relative to medium, S. aureus, replicate 1 [12]: 65.5327; Bacterial growth relative to medium, S. aureus, replicate 2 [12]: 71.5501; Bacterial growth relative to medium, S. aureus, replicate 3 [12]: 85.4097
2 | GSLLGLLDVVKSKVGQTGLL [LS-AMP-A19] | 72.8823 | 76.8187 | 66.0758 | 0.03506 | 0.03971 | 0.04612 | 95.9562 | 82.2712 | 94.9872 | 0.07115 | 0.1267 | 0.119 | 91.5432 | 106.521 | 92.445 | 103.493 | 107.483 | 85.194 | 38.8889 | 63.626 | Antibacterial activity (in words) [7]: strongly suppressed the growth; Bacterial growth relative to medium, M. luteus, replicate 3 [7]: 16.4993; Viability of infected cells relative to aprotinin, Replicate 1 [8]: 0.02926; Viability of infected cells relative to aprotinin, Replicate 2 [8]: 0.02406; Viability of infected cells relative to aprotinin, Replicate 3 [8]: 0.04584; Bacterial growth relative to medium, L. monocytogenes, replicate 1 [9]: 151.42; Bacterial growth relative to medium, L. monocytogenes, replicate 2 [9]: 105.659; Bacterial growth relative to medium, L. monocytogenes, replicate 3 [9]: 60.4017; Antibacterial activity over the panel (in words) [10]: largely inactive; Insecticidal effect on larvae (in words) [11]: Individual dead insects; Bacterial growth relative to medium, S. aureus, replicate 1 [12]: 70.8601; Bacterial growth relative to medium, S. aureus, replicate 2 [12]: 71.4846; Bacterial growth relative to medium, S. aureus, replicate 3 [12]: 83.7635
3 | SLLGLLDVVKSKIGQT [LS-AMP-A15] | 80.9004 | 77.0275 | 69.3765 | 0.04491 | 0.03692 | 0.03514 | 103.062 | 89.9768 | 48.0425 | 0.1635 | 0.1644 | 0.1569 | 84.6766 | 83.7361 | 92.3812 | 101.444 | 115.913 | 84.6093 | 87.1981 | 100.338 | Viability of infected cells relative to aprotinin, Replicate 4 [4]: 0.1576; Antibacterial activity (in words) [5]: limited activity; Bacterial growth relative to medium, M. luteus, replicate 3 [7]: 54.7585; Viability of infected cells relative to aprotinin, Replicate 1 [8]: 0.05034; Viability of infected cells relative to aprotinin, Replicate 2 [8]: 0.05082; Viability of infected cells relative to aprotinin, Replicate 3 [8]: 0.05878; Bacterial growth relative to medium, L. monocytogenes, replicate 1 [9]: 129.232; Bacterial growth relative to medium, L. monocytogenes, replicate 2 [9]: 92.1308; Bacterial growth relative to medium, L. monocytogenes, replicate 3 [9]: 85.5096; Insecticidal effect on larvae (in words) [11]: Individual dead insects; Bacterial growth relative to medium, S. aureus, replicate 1 [12]: 62.2914; Bacterial growth relative to medium, S. aureus, replicate 2 [12]: 63.5709; Bacterial growth relative to medium, S. aureus, replicate 3 [12]: 94.1265; Antibacterial activity (in words) [12]: limited activity
4 | SLLGLLDVVKSKIGQTGLL [LS-AMP-A13] | 81.1135 | 69.8921 | 76.1614 | 0.06606 | 0.03634 | 0.07331 | 109.532 | 109.096 | 112.001 | 0.1762 | 0.09602 | 0.1319 | 109.035 | 130.725 | 108.734 | 102.39 | 115.883 | 93.6736 | 108.132 | 162.387 | Antibacterial activity (in words) [5]: limited activity; Bacterial growth relative to medium, M. luteus, replicate 3 [7]: 79.7227; Viability of infected cells relative to aprotinin, Replicate 1 [8]: 0.08268; Viability of infected cells relative to aprotinin, Replicate 2 [8]: 0.06182; Viability of infected cells relative to aprotinin, Replicate 3 [8]: 0.0661; Bacterial growth relative to medium, L. monocytogenes, replicate 1 [9]: 131.861; Bacterial growth relative to medium, L. monocytogenes, replicate 2 [9]: 134.66; Bacterial growth relative to medium, L. monocytogenes, replicate 3 [9]: 121.808; Insecticidal effect on larvae (in words) [11]: Individual dead insects; Bacterial growth relative to medium, S. aureus, replicate 1 [12]: 71.9833; Bacterial growth relative to medium, S. aureus, replicate 2 [12]: 81.2949; Bacterial growth relative to medium, S. aureus, replicate 3 [12]: 106.322; Antibacterial activity (in words) [12]: limited activity
